Reference: patent US7585859B2, “PDE4B inhibitors and uses therefor” (Plexxikon, Inc., priority 2004, dated 2009)

What was measured:
[1] = target: T1, full-length human PDE4B2 isozyme (Homo sapiens, UniProt Q07343); experiment: PDE4 IC50 determination by Scintillation Proximity Assay, PDE4B2; format: biochemical; conditions: Table 1B, Formula I compounds; read-out: IC50 PDE4B2
T1 construct: The full-length human PDE4B2 isozyme; His6 (N); TEV cleavage site (N); made in house; host or cells: baculovirus infected insect cells (unpurified lysate)
In short: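 Unpurified His6-TEV-tagged full-length human PDE4B2 from baculovirus-infected insect cell lysate (2.5 μl of 50% glycerol stock/ml) hydrolysed [3H]cAMP in 50 mM Tris pH 7.5, 8.3 mM MgCl, 1.7 mM EGTA, 0.01% BSA for 30 min at 30°. Stopped with SPA beads in 18 mM ZnSO4; [3H]AMP scintillation counted, IC50 by non-linear regression.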

[2] = target: T2, full-length human PDE4D5 isozyme (Homo sapiens, UniProt Q08499); experiment: PDE4 IC50 determination by Scintillation Proximity Assay, PDE4D5; format: biochemical; conditions: Table 1B, Formula I compounds; read-out: IC50 PDE4D5
T2 construct: The full-length human PDE4D5 isozyme; His6 (N); TEV cleavage site (N); made in house; host or cells: baculovirus infected insect cells (unpurified lysate)
In short: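 Unpurified His6-tagged full-length human PDE4D5 from baculovirus-infected insect cell lysate, 0.083 μl glycerol stock/ml, hydrolysed [3H]cAMP in Tris pH 7.5/MgCl/EGTA buffer, 30 min at 30°. ZnSO4/SPA beads stop; [3H]AMP counted. Controls: DMSO and roflumilast; 11-point duplicate curves, nonlinear-regression IC50.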

PDE4D = target: T3, PDE4D (Homo sapiens, UniProt Q08499); experiment: PDE4 IC50 determination by Scintillation Proximity Assay, PDE4D; format: biochemical; conditions: Table 1B, Formula I compounds; read-out: IC50 PDE4D
T3 construct: PDE4D: The catalytic domain of human PDE4B from S3 16-V692; His6 (N); thrombin cleavage site (N); made in house; host or cells: E. coli
In short: (§1)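 Hydrolysis of [^3H]cAMP measured by SPA with yttrium silicate beads, which bind the [^3H]AMP product strongly and cAMP weakly. Enzyme at 80 ng/ml for PDE4B, 4 ng/ml for PDE4D; 30 min at 30°.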

[3] = system: TNF alpha production in LPS-stimulated human blood (Buffy coat); experiment: TNF alpha production by stimulation with LPS in whole blood cultures; format: cell-based; conditions: Homo sapiens; Table 1B, Formula I compounds; read-out: IC50 h TNFα
Experimental: Compounds were assayed to generate IC50 numbers as described in Example 54, using the following assay protocol (see Tables 3B and 4B for compounds and results).
Protocol • 1) Obtained 20 mM DMSO aliquots of desired concentrations of compounds (see Tables 3B and 4B for compounds tested and results). Placed 2 μl/well compound in DMSO in the top row of the dilution plate. Added 98 μl of RPMI 1640 media w/2.5% heat inactivated FBS.
2) Made the same media with 2% DMSO in it. Added 60 μl/well to well to make compound titration. Took 30 μl of top row and did a 1:3 dilution down the plate. In column 11 added 4 wells of 50 μM roflumilast and piclamilast. In column 12 added 2% DMSO media.
3) Transfered 20 μl/well into assay plates in duplicate.
4) Obtained human Buffy coat.
5) Diluted blood with 7 volumes of RPMI 1640 media with 1% P/S and 2.5% heat inactivated FBS (a 1:8 dilution)
6) Added160 μl/well of diluted blood to the assay plates.
7) Incubated for 1 hour at 37 degrees 5% CO2
8) Diluted LPS (which was already diluted to 1 mg/ml in PBS, 20 μl aliquots frozen −20 C.) to 10× desired final concentration to make a […] dilution (final concentration should be 100 ng/ml).
9) After 1 hour incubation added 20 μl/well of LPS to plates. A non-LPS treated background was also prepared. Samples were put on the shaker for a one minute 900 rpm.
10) Incubated for 4 hours in incubator.
11) After incubation, put on the shaker for a one minute 900 rpm and spun plate at 100 g for 10 minutes, Decel 5.
12) Carefully pipetted the top 75 μl supernatant into a new plate. Samples were frozen as needed.
Biosource hu-TNF ALPHA ELISA
• REAGENTS USED • DPBS 10×: VWR45000-428 (dilute 1:10 with Millipore Water) • TWEEN 20: FISHER BP337-500 • CAPTURE AND DETECTION ANTIBODIES: R&D DY510E • STREP-HRP: Biosource part SNN4004X • COLOR REAGENTS: R&D DY994 • STOP SOLUTION: from chemistry, or R&D DY999 • 1) Thawed samples to RT as needed. • 2) Added 50 μl Incubation buffer/well. • 3) Added 50 μl blood samples +50 μl Diluent buffer • 4) Incubated 2 hours at room temp. • 5) Washed the plate 4× with 300 μl/well wash buffer with microfill. Wash buffer was DPBS with 0.05% Tween pH 7.2-7.4 • 6) Added 100 μl biotinylated anti-TNFalpha • 7) Incubateed 1 hours at room temp. • 8) Washed the plate 4× with 300 μl/well wash buffer with microfill. Wash buffer was DPBS with 0.05% Tween pH 7.2-7.4 • 9) Added^100 μl Streptavidin-HRP working solution • 10) Incubated for 30 minutes at room temp. • 11) Washed the plate 4× with 300 μl/well wash buffer with microfill. Wash buffer was DPBS with 0.05% Tween pH 7.2-7.4 • 12) Added 100 μl Chromagen • 13) Incubated in the dark for 30 minutes until the blue color developed satisfactorily. • 14) Added 100 μl/well stop solution (2 N H2SO4). • 15) Read plate on WallacVictor at 450 nm for 0.1 sec/well

[4] = target: T4, PDE4B: The catalytic domain of human PDE4B from S152-S528 (Homo sapiens, UniProt Q07343); experiment: PDE4 IC50 determination by Scintillation Proximity Assay, PDE4B; format: biochemical; conditions: Table 1B, Formula I compounds; read-out: IC50 PDE4B
T4 construct: His6 (N); thrombin cleavage site (N); made in house; host or cells: E. coli
In short: as §1

T3 sequence (Q08499 380-756): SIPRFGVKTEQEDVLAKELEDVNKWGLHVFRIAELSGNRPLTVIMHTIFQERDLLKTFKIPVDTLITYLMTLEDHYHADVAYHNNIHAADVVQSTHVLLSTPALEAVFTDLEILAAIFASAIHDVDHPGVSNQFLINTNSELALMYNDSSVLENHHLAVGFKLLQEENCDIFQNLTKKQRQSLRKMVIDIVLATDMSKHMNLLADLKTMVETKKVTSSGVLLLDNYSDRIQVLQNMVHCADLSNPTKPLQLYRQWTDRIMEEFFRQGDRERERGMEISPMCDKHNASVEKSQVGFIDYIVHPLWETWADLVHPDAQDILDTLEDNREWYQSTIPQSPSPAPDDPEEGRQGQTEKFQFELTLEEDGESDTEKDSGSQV
T1 sequence (Q07343 1-564 isoform Q07343-2): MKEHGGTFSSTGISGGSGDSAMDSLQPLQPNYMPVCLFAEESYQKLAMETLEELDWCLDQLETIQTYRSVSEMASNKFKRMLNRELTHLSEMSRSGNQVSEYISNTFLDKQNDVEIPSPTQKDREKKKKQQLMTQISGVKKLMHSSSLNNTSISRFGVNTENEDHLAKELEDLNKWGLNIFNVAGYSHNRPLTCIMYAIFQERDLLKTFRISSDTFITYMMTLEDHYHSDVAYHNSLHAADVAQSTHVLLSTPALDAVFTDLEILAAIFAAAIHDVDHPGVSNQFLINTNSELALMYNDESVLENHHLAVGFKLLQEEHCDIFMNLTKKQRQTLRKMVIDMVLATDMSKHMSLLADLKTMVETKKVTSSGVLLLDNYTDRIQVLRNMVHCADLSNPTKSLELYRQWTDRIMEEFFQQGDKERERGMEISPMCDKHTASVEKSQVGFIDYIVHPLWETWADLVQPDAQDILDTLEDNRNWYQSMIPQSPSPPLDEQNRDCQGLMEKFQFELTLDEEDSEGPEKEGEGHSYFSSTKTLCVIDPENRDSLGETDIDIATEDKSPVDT
T2 sequence (Q08499 1-745 isoform Q08499-6): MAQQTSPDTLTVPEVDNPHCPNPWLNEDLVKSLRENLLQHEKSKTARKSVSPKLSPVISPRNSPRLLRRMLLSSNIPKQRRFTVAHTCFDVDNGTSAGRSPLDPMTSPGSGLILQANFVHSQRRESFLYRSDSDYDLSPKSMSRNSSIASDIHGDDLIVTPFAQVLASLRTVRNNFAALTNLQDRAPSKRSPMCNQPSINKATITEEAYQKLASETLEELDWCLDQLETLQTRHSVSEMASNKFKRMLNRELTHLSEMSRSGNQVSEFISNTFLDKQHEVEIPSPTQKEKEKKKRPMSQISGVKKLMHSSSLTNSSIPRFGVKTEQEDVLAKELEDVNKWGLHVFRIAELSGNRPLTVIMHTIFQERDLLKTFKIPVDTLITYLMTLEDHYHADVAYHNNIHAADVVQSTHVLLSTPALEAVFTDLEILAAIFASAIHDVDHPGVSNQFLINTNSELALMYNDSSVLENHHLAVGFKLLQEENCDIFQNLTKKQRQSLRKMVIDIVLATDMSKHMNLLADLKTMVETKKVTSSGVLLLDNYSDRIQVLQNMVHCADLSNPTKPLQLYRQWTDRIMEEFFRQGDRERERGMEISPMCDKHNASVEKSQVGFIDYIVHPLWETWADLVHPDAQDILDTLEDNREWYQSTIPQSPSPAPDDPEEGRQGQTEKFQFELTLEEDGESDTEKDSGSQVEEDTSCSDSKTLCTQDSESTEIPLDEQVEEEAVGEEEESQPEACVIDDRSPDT
T4 sequence (Q07343 with tags, fused parts or gaps): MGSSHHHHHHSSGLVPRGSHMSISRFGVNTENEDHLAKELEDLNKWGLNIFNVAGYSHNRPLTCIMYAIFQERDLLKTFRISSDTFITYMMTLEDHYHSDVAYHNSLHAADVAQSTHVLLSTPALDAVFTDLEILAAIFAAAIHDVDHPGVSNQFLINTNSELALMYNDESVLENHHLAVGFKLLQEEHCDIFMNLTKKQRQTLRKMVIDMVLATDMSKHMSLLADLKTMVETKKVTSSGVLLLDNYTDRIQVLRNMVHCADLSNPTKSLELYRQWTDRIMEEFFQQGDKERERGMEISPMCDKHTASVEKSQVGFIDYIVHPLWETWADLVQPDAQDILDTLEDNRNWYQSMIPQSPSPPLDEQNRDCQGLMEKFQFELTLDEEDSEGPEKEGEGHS

SMILES | IC50 [1] [µM] | IC50 [2] [µM] | IC50 (PDE4D) [µM] | IC50 [3] [µM] | IC50 [4] [µM]
Cc1nc(-c2cnccn2)sc1C(=O)c1sc(NC2CCCC2)c(C(N)=O)c1N [Compound 1-252, 4-Amino-2-cyclopentylamino-5-(4-methyl-2-pyrazin-2-yl-thiazole-5-carbonyl)-thiophene-3-carboxylic acid amide] | < 10 | < 10 | < 10 | > 10 | < 10
NC(=O)c1c(NC2CCCC2)sc(C(=O)c2cc(-c3ccc(N)cc3)no2)c1N [Compound 1-253, 4-Amino-5-[3-(4-amino-phenyl)-isoxazole-5-carbonyl]-2-cyclopentylamino-thiophene-3-carboxylic acid amide] | < 10 | < 10 | < 10 | > 10 | < 10
CC(C)CNc1sc(C(=O)c2cc(-c3ccc(N)cc3)no2)c(N)c1C(N)=O [Compound 1-254, 4-Amino-5-[3-(4-amino-phenyl)-isoxazole-5-carbonyl]-2-isobutylamino-thiophene-3-carboxylic acid amide] | < 10 | < 10 | < 10 | < 10 | < 10

The remaining lines, values ahead:

IC50 [1] [µM] | IC50 [2] [µM] | IC50 (PDE4D) [µM] | IC50 [3] [µM] | IC50 [4] [µM] | SMILES
< 10 | < 10 | < 10 | < 10 | < 10 | CC(C)CNc1sc(C(=O)c2cc(-c3ccc(Cl)c(Cl)c3)no2)c(N)c1C(N)=O [Compound 1-245, 4-Amino-5-[3-(3,4-dichloro-phenyl)-isoxazole-5-carbonyl]-2-isobutylamino-thiophene-3-carboxylic acid amide]
< 10 | > 10 | > 10 | > 10 | < 10 | CCC(C)Nc1sc(C(=O)c2cc(-c3ccc(Cl)c(Cl)c3)no2)c(N)c1C#N (stereo not drawn) [Compound 1-247, 4-Amino-2-sec-butylamino-5-[3-(3,4-dichloro-phenyl)-isoxazole-5-carbonyl]-thiophene-3-carbonitrile]
< 10 | < 10 | < 10 | > 10 | < 10 | N#Cc1c(NC2CCCC2)sc(C(=O)c2cc(-c3ccc(N)cc3)no2)c1N [Compound 1-250, 4-Amino-5-[3-(4-amino-phenyl)-isoxazole-5-carbonyl]-2-cyclopentylamino-thiophene-3-carbonitrile]
